Measurements: US12398107B2, “Fungicidal nitroanilino substituted pyrazoles” (FMC Corporation, priority 2018, dated 2025)

Legend:
Assay type in all cases: in vivo
Septoria tritici = assay: Test A: wheat leaf blotch, preventive spray on wheat seedlings; conditions: 50 ppm, 100 = 100% disease control, 0 = no control relative to controls
In short: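 Preventive test: seedlings sprayed to run-off one day before Septoria tritici spore inoculation, with ppm doses in acetone/water containing 250 ppm PEG400. After 48 h at 24 °C in saturated air and 17 days at 20 °C, plants were scored 0–100 for disease control versus untreated controls.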

Phakopsora pachyrhizi = assay: Test D: Asian soybean rust, preventive spray on soybean seedlings; conditions: 50 ppm, 100 = 100% disease control, 0 = no control
In short: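 Soybean seedlings sprayed to run-off with compound suspension (ppm, in 50/50 acetone/water with 250 ppm PEG400), inoculated next day with P. pachyrhizi spores, held 24 h saturated at 22°C then 8 days at 22°C. Visual rating 0-100% disease control relative to controls.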

Botrytis cinerea = assay: Test E: tomato Botrytis, preventive spray on tomato seedlings; conditions: 50 ppm, 100 = 100% disease control, 0 = no control
In short: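 Preventive test: spore inoculation one day after run-off spraying of compound suspension (3% acetone, acetone/water 50/50, 250 ppm PEG400). Incubation 20 °C saturated humidity for 48 h, followed by 3 days at 24 °C growth chamber; disease control scored visually, 100 = full control.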

[1] = test system: Blumeria graminis f. sp. tritici; assay: Test C: wheat powdery mildew, preventive spray on wheat seedlings; conditions: 50 ppm, rated after 8 days, 100 = 100% disease control, 0 = no control
In short: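 Wheat seedlings got a run-off spray of test suspension (ppm in acetone/water 50/50, 250 ppm PEG400, acetone 3% of volume), then spore-dust inoculation with wheat powdery mildew one day later. After 8 days' growth-chamber incubation at 20° C, disease control scored visually on a 0–100 scale versus untreated controls.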

Alternaria solani = assay: Test F: tomato early blight, preventive spray on tomato seedlings; conditions: 50 ppm, 100 = 100% disease control, 0 = no control
In short: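 Preventive test: one day after seedlings were sprayed to run-off with ppm-level suspensions (acetone/water 50/50, 250 ppm PEG400), A. solani spore inoculation followed. Incubation was 48 h at 27° C in saturated air plus 3 days at 20° C; disease control was scored visually versus controls (100 = full control).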

[2] = test system: Puccinia recondita f. sp. tritici; assay: Test B: wheat leaf rust, preventive spray on wheat seedlings; conditions: 50 ppm, 100 = 100% disease control, 0 = no control relative to controls
In short: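 Wheat seedlings got a run-off spray (ppm, acetone/water 50/50, 250 ppm PEG400) and one day later a spore inoculum. After 24 h at 20° C. in saturated air and 7 days at 20° C., disease was scored as % control relative to controls (100 = full control).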

| Structure (SMILES) | Test A disease control rating (wheat leaf blotch) (Septoria tritici) [%] | Test D disease control rating (Asian soybean rust) (Phakopsora pachyrhizi) [%] | Test E disease control rating (tomato Botrytis) (Botrytis cinerea) [%] | Test C disease control rating (wheat powdery mildew) [1] [%] | Test F disease control rating (tomato early blight) (Alternaria solani) [%] | Test B disease control rating (wheat leaf rust) [2] [%] |
| --- | --- | --- | --- | --- | --- | --- |
| Cc1nn(C)c(Nc2c(Cl)cc(Cl)cc2[N+](=O)[O-])c1-c1c(F)cccc1F [Compound 96] | 100 | 0 | 80 | 0 | 0 | 95 |
| Cc1nn(C)c(Nc2c(Cl)cccc2[N+](=O)[O-])c1-c1ccc(F)cc1Cl [Compound 108] | 100 | 86 | 100 | 97 | 77 | 100 |
| Cc1cccc([N+](=O)[O-])c1Nc1c(-c2ccc(C#N)cc2Cl)c(C)nn1C [Compound 157] | 100 | 0 | 9 | 76 | 0 | 97 |
| COc1ccc(-c2c(C)nn(C)c2Nc2ccc(Cl)cc2[N+](=O)[O-])c(Cl)c1 [Compound 74] | 99 | 74 | 99 | 81 | 85 | 86 |
| Cc1nn(C)c(Nc2c(Cl)cc(F)cc2[N+](=O)[O-])c1-c1ccc(F)cc1F [Compound 67] | 100 | 69 | 98 | 89 | 33 | 100 |
| COc1ccc(-c2c(C)nn(C)c2Nc2c(C)cccc2[N+](=O)[O-])c(Cl)c1 [Compound 183] | 100 | 0 | 100 | 78 | 58 | 99 |
| Cc1nn(C)c(Nc2c(Cl)cc(F)cc2[N+](=O)[O-])c1-c1c(F)cccc1F [Compound 76] | 100 | 25 | 87 | 95 | 0 | 99 |
| CCc1nn(C)c(Nc2c(Cl)cc(Br)cc2[N+](=O)[O-])c1-c1ccc(F)cc1Cl [Compound 128] | 100 | 31 | 99 | 96 | 33 | 98 |
| CCc1nn(C)c(Nc2c(Cl)cccc2[N+](=O)[O-])c1-c1ccc(F)cc1F [Compound 17] | 100 | 0 | 99 | 94 | 9 | 92 |
| CCc1nn(C)c(Nc2ccc(C)cc2[N+](=O)[O-])c1-c1ccc(F)cc1F [Compound 175] | 100 | 0 | 88 | 79 | 0 | 86 |
| Cc1nn(C)c(Nc2c(Cl)cccc2[N+](=O)[O-])c1-c1ccc(F)cc1Br [Compound 41] | 100 | 77 | 77 | 94 | 0 | 100 |
| Cc1nn(C)c(Nc2c(Br)cccc2[N+](=O)[O-])c1-c1ccc(F)cc1Cl [Compound 110] | 100 | 73 | 99 | 56 | 0 | 98 |
